Data reported in ChEMBL document CHEMBL1127689, “Novel 4-(aryloxy)tetrahydropyridine analogs of MPTP as monoamine oxidase A and B substrates” (J Med Chem, 1994).

Experiment: Relative specificity for human MAO-A and bovine MAO-B

| SMILES | Selectivity |
| --- | --- |
| CN1CC=C(c2ccccc2)CC1 | 0.27 |
| CN1CC=C(Cc2ccccc2)CC1 | 0.11 |
| CCCCc1ccc(OC2=CCN(C)CC2)cc1 | 1.54 |
| CN1CC=C(Cc2cccc3ccccc23)CC1 | 24.7 |
| CN1CC=C(Oc2ccc(C(C)(C)C)cc2)CC1 | 2.17 |
| CN1CC=C(Cc2ccc3ccccc3c2)CC1 | 10.8 |
| CN1CC=C(Oc2ccc(Cl)cc2Cl)CC1 | 2.47 |

Next, values leading:

| Selectivity | SMILES |
| --- | --- |
| 0.57 | CN1CC=C(Oc2ccccc2)CC1 |
| 2.77 | CN1CC=C(Oc2cccc3ccccc23)CC1 |
| 4.72 | CN1CC=C(Oc2ccc(-c3ccccc3)cc2)CC1 |
| 2.21 | CN1CC=C(Oc2ccc3ccccc3c2)CC1 |
